This is an account of results in US10125126B2, “N-cycloalkyl-N-[(heterocyclylphenyl)methylene]-(thio)carboxamide derivatives” (BAYER CROPSCIENCE AG, priority 2012, dated 2018).

The first data set is described as follows: log P by HPLC on a reversed-phase column (C 18), EEC Directive 79/831 Annex V.A8. The class given is physicochemical. The following applies: HPLC on reversed-phase column (C 18), 40° C., 0.1% aqueous formic acid and acetonitrile, linear gradient 10% to 90% acetonitrile. As to the method:
In table 1, the log P values were determined in accordance with EEC Directive 79/831 Annex V.A8 by HPLC (High Performance Liquid Chromatography) on a reversed-phase column (C 18), using the method described below: Temperature: 40° C.; Mobile phases: 0.1% aqueous formic acid and acetonitrile; linear gradient from 10% acetonitrile to 90% acetonitrile. Calibration was carried out using unbranched alkan-2-ones (comprising 3 to 16 carbon atoms) with known log P values (determination of the log P values by the retention times using linear interpolation between two successive alkanones). lambda-max-values were determined using UV-spectra from 200 nm to 400 nm and the peak values of the chromatographic signals.
As a reminder, the logP is a log measure of how a compound divides between an organic and an aqueous phase. `Cc1ccc(-c2csc3ccccc23)c(CN(C(=O)c2c(C(F)F)nn(C)c2Cl)C2CC2C)c1` (stereo not shown) [I.167] yielded a logP of 5.05.

`Cn1cc(C(=O)N(Cc2cc(-c3ccsc3)ccc2Cl)C2CC2)c(C(F)F)c1` [I.92]: the logP is given as 4.06.

In turn, `COc1ccsc1-c1ccc(C)cc1CN(C(=O)c1c(C(F)F)nn(C)c1Cl)C1CC1C` (stereo not shown) [I.128] displayed a logP of 4.41.

As to `Cn1nc(C(F)F)c(C(=O)N(Cc2cc(Cl)ccc2C23CCCC2O3)C2CC2)c1F` (stereo not shown) [I.18], the logP amounted to 3.60.

On to `Cc1ccc(-c2coc3ccccc23)c(CN(C(=O)c2cn(C)nc2C(F)F)C2CC2)c1` [I.135], for which the logP came out at 3.89.

With `Cc1ccc(-c2csc3ccccc23)c(CN(C(=O)c2c(C(F)F)nn(C)c2F)C2CC2C)c1` (stereo not shown) [I.163], the lipophilicity (logP) is on record as 4.98.

For `Cn1nc(C(F)F)c(C(=O)N(Cc2cc(Cl)ccc2C23CCCCC2O3)C2CC2)c1F` (stereo not shown) [I.23], the logP was found to be 3.99.

As for `Cc1ccc(-c2ccsc2Cl)c(CN(C(=O)c2c(C(F)F)nn(C)c2Cl)C2CC2)c1` [I.148], the log partition coefficient (logP) worked out at 4.44.

As for `Cc1nc(C(F)F)c(C(=O)N(Cc2cc(-c3ccco3)ccc2Cl)C2CC2)s1` [I.46], the logP is given as 3.99.

`Cc1cscc1-c1ccc(C(C)C)c(CN(C(=O)c2c(C(F)F)nn(C)c2F)C2CC2)c1` [I.110] came in with a logP of 4.72.

For `Cn1nc(C(F)F)c(C(=S)N(Cc2ccccc2-c2ccsc2)C2CC2)c1Cl` [I.80], the log partition coefficient (logP) is on record as 4.39.

`Cc1ccc(-c2ccn(C)c2)c(CN(C(=O)c2c(C(F)F)nn(C)c2F)C2CC2)c1` [I.51] had a logP of 3.55.

For the molecule `COc1ccsc1-c1ccc(C)cc1CN(C(=O)c1cn(C)nc1C(F)F)C1CC1` [I.124], the logP is given as 3.46.

`Cc1ccc(CN(C(=O)c2c(C(F)F)nn(C)c2F)C2CC2)c(C2(C)OCCO2)c1` [I.21]: the logP came to 3.25.

`Cn1nc(C(F)F)c(C(=O)N(Cc2ccccc2-c2ccco2)C2CC2)c1Cl` [I.30]: the logP was 3.46.

The molecule `Cc1ccc(-c2cnn(C)c2)c(CN(C(=O)c2cn(C)nc2C(F)F)[C@@H]2C[C@H]2C)c1` (relative stereo) [I.62] came in with a logP of 2.66.

`O=C(c1ccsc1I)N(Cc1cc(-c2ccco2)ccc1Cl)C1CC1` [I.41] had a logP of 4.61.

In turn, `O=C(c1ccsc1I)N(Cc1ccccc1-c1ccco1)C1CC1` [I.33] yielded a log partition coefficient (logP) of 4.01.

Molecule `Cc1ccc(-c2csc3ccccc23)c(CN(C(=O)c2c(C(F)F)nn(C)c2F)C2CC2C)c1` (stereo not shown) [I.166] came in with a lipophilicity (logP) of 4.92.

`Cn1nc(C(F)F)c(C(=O)N(Cc2ccccc2C23CCCCCC2O3)C2CC2)c1F` (stereo not shown) [I.26]: the logP came out at 3.94.

As to `Cc1ccc(-c2c(C)nn(C)c2C)c(CN(C(=O)c2c(C(F)F)nn(C)c2F)C2CC2)c1` [I.115], the log partition coefficient (logP) was found to be 2.71.

`Cc1nc(C(F)F)c(C(=O)N(Cc2cc(-c3cccs3)ccc2Cl)C2CC2)s1` [I.97] showed a logP of 4.26.

The molecule `Cc1ccc(-c2csc3ccccc23)c(CN(C(=O)c2cn(C)nc2C(F)F)C2CC2C)c1` (stereo not shown) [I.165] yielded a logP of 4.46.

As for `Cn1nc(C(F)F)c(C(=O)N(Cc2cc(C34CCCCC3O4)ccc2Cl)C2CC2)c1F` (stereo not shown) [I.22], the logP was 3.99.

Molecule `Cc1nn(C)c(C)c1-c1ccc(C(C)C)c(CN(C(=O)c2c(C(F)F)nn(C)c2F)C2CC2)c1` [I.118] returned a logP of 3.23.

As for `Cn1nc(C(F)F)c(C(=O)N(Cc2c(C3(C)CO3)ccc(Cl)c2Cl)C2CC2)c1Cl` (stereo not shown) [I.11], the logP was 3.67.

On to `Cc1ccc(-c2cnn(C)c2)c(CN(C(=O)c2c(C(F)F)nn(C)c2F)[C@@H]2C[C@H]2C)c1` (relative stereo) [I.63], for which the logP was determined as 2.82.

Molecule `Cc1ccc(-c2ccoc2)c(CN(C(=O)c2cn(C)nc2C(F)F)C2CC2)c1` [I.38] showed a lipophilicity (logP) of 3.19.

On to `O=C(c1ccsc1I)N(Cc1cc(-c2ccsc2)ccc1Cl)C1CC1` [I.89], for which the logP was determined as 4.78.

For `O=C(c1ccsc1I)N(Cc1cc(Cl)ccc1-c1ccc(Cl)s1)C1CC1` [I.147], the logP was found to be 5.68.

The molecule `Cc1cc(C(=O)N(Cc2cc(-c3ccsc3)ccc2Cl)C2CC2)c(C)o1` [I.98] registered a logP of 4.59.

Molecule `Cn1nc(C(F)F)c(C(=S)N(Cc2ccccc2-c2cccs2)C2CC2)c1Cl` [I.81] yielded a logP of 4.49.

For the molecule `COc1ccsc1-c1ccc(C)cc1CN(C(=O)c1c(C(F)F)nn(C)c1F)C1CC1C` (stereo not shown) [I.127], the logP amounted to 4.21.

For the molecule `Cc1nc(C(F)F)c(C(=O)N(Cc2cc(-c3ccsc3)ccc2Cl)C2CC2)s1` [I.96], the logP was 4.14.

In turn, `Cn1nc(C(F)F)c(C(=O)N(Cc2cc(Cl)ccc2C23CCCCCC2O3)C2CC2)c1F` (stereo not shown) [I.25] had a logP of 4.44.

In the case of `Cc1ccc(-c2ccn(C)c2)c(CN(C(=O)c2cn(C)nc2C(F)F)C2CC2)c1` [I.52], the logP was 3.19.

`CC(c1ccccc1Cc1ccc(Cl)cn1)N(C(=O)c1c(C(F)F)nn(C)c1F)C1CC1` (stereo not shown) [I.171]: the lipophilicity (logP) is on record as 3.68.

The molecule `Cc1ccc(C2(C)CO2)c(CN(C(=O)c2c(C(F)F)nn(C)c2F)C2CC2)c1F` (stereo not shown) [I.12] came in with a logP of 3.17.

Molecule `Cc1nc(C(F)F)c(C(=O)N(Cc2cc(-c3ccc(Cl)s3)ccc2Cl)C2CC2)s1` [I.151] showed a logP of 5.00.

On to `Cn1nc(C(F)F)c(C(=O)N(Cc2cc(-c3cccs3)ccc2Cl)C2CC2)c1Cl` [I.85], for which the logP was found to be 4.29.

In turn, `Cc1ccc(-c2c(C)nn(C)c2C)c(CN(C(=O)c2cn(C)nc2C(F)F)C2CC2)c1` [I.116] came in with a logP of 2.45.

With `Cc1ccc(-c2coc3ccccc23)c(CN(C(=O)c2c(C(F)F)nn(C)c2Cl)C2CC2)c1` [I.133], the logP came out at 4.49.

With `Cn1nc(C(F)F)c(C(=O)N(Cc2ccccc2C2COC2)C2CC2)c1Cl` [I.2], the logP is 1.56.

As to `Cc1ccc(-c2csc3ccccc23)c(CN(C(=O)c2c(C(F)F)nn(C)c2Cl)C2CC2C)c1` (stereo not shown) [I.164], the logP is 5.19.

“N-cyclopropyl-3-(difluoromethyl)-5-fluoro-1-methyl-N-[2-(3-methyloxetan-3-yl)benzyl]-1H-pyrazole-4-carboxamide [I.15]” came in with a logP of 1.94.

For `Cn1nc(C(F)F)c(C(=O)N(Cc2ccccc2OC2CCOCC2)C2CC2)c1F` [I.169], the logP is 2.80.

`Cn1nc(C(F)F)c(C(=O)N(Cc2ccccc2C2(C)OCCO2)C2CC2)c1F` [I.20] came in with a logP of 2.94.

As to `Cn1nc(C(F)F)c(C(=O)N(Cc2cc(C34CCCC3O4)ccc2Cl)C2CC2)c1F` (stereo not shown) [I.17], the logP stood at 3.59.

With `COc1ccsc1-c1ccc(C)cc1CN(C(=O)c1c(C(F)F)nn(C)c1Cl)C1CC1` [I.126], the logP came out at 3.99.

Molecule `Cc1cc(C(=O)N(Cc2cc(-c3cccs3)ccc2Cl)C2CC2)c(C)o1` [I.99] had a logP of 4.72.

Take `Cc1ccc(-c2csc3ccccc23)c(CN(C(=O)c2cn(C)nc2C(F)F)C2CC2)c1` [I.161]: the logP amounted to 4.15.

In turn, `Cn1nc(C(F)F)c(C(=O)N(Cc2ccccc2C23CCCCC2O3)C2CC2)c1F` (stereo not shown) [I.24] returned a logP of 3.48.

Still in this data set, the particulars now being: HPLC, C 18, 40° C., 0.1% aqueous formic acid and acetonitrile.
With `CC(C)c1ccc(Cl)cc1C=NO` [1-(5-chloro-2-isopropylphenyl)-N-hydroxymethanimine], the logP came to 3.17.

“N-cyclopropyl-3-(difluoromethyl)-5-fluoro-1-methyl-N-[2-(3-methyloxetan-3-yl)benzyl]-1H-pyrazole-4-carboxamide [I.15]”: the lipophilicity (logP) was 1.94.

Still in this data set, the particulars now being: logP.
Regarding `CC(C)c1ccc(Cl)cc1CNC(=O)c1c(C(F)F)nn(C)c1F` [Xa.1, N-(5-chloro-2-isopropylbenzyl)-3-(difluoromethyl)-5-fluoro-1-methyl-1H-pyrazole-4-carboxamide], the chromatographic logP was determined as 3.46.

Staying with this data set, now noted: reversed-phase HPLC column (C 18), HPLC, C 18, 40° C., 0.1% aqueous formic acid and acetonitrile; read-out: logP.
For the molecule `CC(C)c1ccc(Cl)cc1CN(C(=O)c1c(C(F)F)nn(C)c1F)C1CC1` [N-(5-chloro-2-isopropylbenzyl)-N-cyclopropyl-3-(difluoromethyl)-5-fluoro-1-methyl-1H-pyrazole-4-carboxamide], the chromatographic logP came out at 4.06.

As to `Clc1ccc(-c2ccc(Cl)s2)c(CNC2CC2)c1` [IIa.7, N-[5-chloro-2-(5-chloro-2-thienyl)benzyl]cyclopropanamine], the chromatographic logP worked out at 1.51.

On to `CC(C)c1ccc(Cl)cc1C=NO` [1-(5-chloro-2-isopropylphenyl)-N-hydroxymethanimine], for which the chromatographic logP was 2.9.

Consider `CC(NC1CC1)c1ccccc1-c1ccsc1` (stereo not shown) [IIa.4, N-{1-[2-(3-thienyl)phenyl]ethyl}cyclopropanamine], for which the chromatographic logP was 1.42.

On to `Clc1ccc(-c2cccs2)c(CNC2CC2)c1` [IIa.2, N-[5-chloro-2-(2-thienyl)benzyl]cyclopropanamine], for which the chromatographic logP amounted to 1.1.

In the case of `Clc1ccc(-c2ccsc2)c(CNC2CC2)c1` [IIa.5, N-[5-chloro-2-(3-thienyl)benzyl]cyclopropanamine], the chromatographic logP turned out to be 1.12.

`Clc1ccc(-c2ccsc2)cc1CNC1CC1` [IIb.3, N-[2-chloro-5-(3-thienyl)benzyl]cyclopropanamine]: the chromatographic logP turned out to be 1.28.

`Clc1ccc(-c2ccccc2CNC2CC2)s1` [IIa.6, N-[2-(5-chloro-2-thienyl)benzyl]cyclopropanamine]: the chromatographic logP came out at 1.28.

On to `Clc1ccc(-c2ccc(Cl)c(CNC3CC3)c2)s1` [IIb.4, N-[2-chloro-5-(5-chloro-2-thienyl)benzyl]cyclopropanamine], for which the chromatographic logP came to 1.58.

In the case of `CC(C)c1ccc(Cl)cc1CN` [1-(5-chloro-2-isopropylphenyl)methanamine], the chromatographic logP was determined as 1.2.

With `Clc1ccc(-c2cccs2)cc1CNC1CC1` [IIb.2, N-[2-chloro-5-(2-thienyl)benzyl]cyclopropanamine], the chromatographic logP came to 1.29.

As to `Clc1ccc(-c2ccco2)cc1CNC1CC1` [IIb.1, N-[2-chloro-5-(2-furyl)benzyl]cyclopropanamine], the chromatographic logP came out at 1.08.
